Laboratory results taken from PMC5089653, “Isoxazole‐Derived Amino Acids are Bromodomain‐Binding Acetyl‐Lysine Mimics: Incorporation into Histone H4 Peptides and Histone H3” (Angewandte Chemie (International Ed. in English), 2016).
Where two headings read alike, the source gives them in different places.

Legend:
[1] = biological target: T1, BRD4(1) (Homo sapiens, UniProt O60885); test: AlphaScreen assay inhibiting the interaction of BRD4(1) with biotinylated H4(KAc)4; assay type: binding; settings: for Percentage inhibition of bromodomain-KAc recognition, BRD4(1), H4(KAc)4 / inhibition at 0.004 µM: AlphaScreen, average of triplicate, BRD4(1) 10 nM, biotin-H4(KAc)4 4 nM
T1 construct: the phylogenetically diverse BAZ2A, BRD4(1), and BRD9 bromodomains; His tag (pNIC28-Bsa4 vector; purified on HisTrap) (N); made in house; host or cells: E. coli BL21 (DE3) Gold
Excerpt: (§1) Supporting Table S1: Percentage inhibition of bromodomain-KAc recognition by isoxazole-containing amino acids.
(§2) Inhibitory values of unprotected amino acids given as average percentage inhibition (buffer […]
(§3) measurements in triplicate (AlphaScreen). n.d. value not determined. Inhibition values highlighted as a heatmap from green (low inhibition) to red (high inhibition). […]
(§4) Protein expression and purification: bromodomain-containing constructs in pNIC28-Bsa4 vector backbones were transformed into E. coli BL21 (DE3) Gold cells. Flasks containing […]
(§5) starter culture. Flasks (2000 mL PYREX® narrow-mouth graduated Erlenmeyer flasks or plastic baffled flasks) were incubated at 37 °C and 180 rpm in an Innova® 44 shaker (New Brunswick Scientific). When OD600 reached 0.8-1.0, the temperature was lowered to 18 °C and IPTG was added to a final concentration of 0.25 mM to induce protein expression.
(§6) Cultures were incubated at 18 °C overnight, after which time cultures were harvested by centrifugation in a JA10 rotor in an Avanti J25 centrifuge (Beckman CoulterTM) at 8000 rpm for 15 min at 4 °C. The resulting pellet was weighed and stored in a sealable plastic bag at - 80 °C. Proteins were purified with a 3 mL HisTrapTM chromatography column (GE Healthcare), and Superdex 75 XK 16/600 gel filtration column (GE Healthcare) using standard

[2] = biological target: T2, BAZ2A (Homo sapiens, UniProt Q9UIF9); test: AlphaScreen single shot screening, BAZ2A with biotin-H3K14Ac peptide; assay type: binding; settings: average of triplicate, BAZ2A 25 nM, biotin-H3 5-24 KAc14 50 nM, read-out: Percentage inhibition of bromodomain-KAc recognition, BAZ2A, H3K14Ac; for inhibition at 250 µM: amino acid 250 μM, <0.5% DMSO
T2 construct: the phylogenetically diverse BAZ2A, BRD4(1), and BRD9 bromodomains; Structural Genomics Consortium (Oxford)
T2 sequence (Q9UIF9 1793-1897 limits assumed): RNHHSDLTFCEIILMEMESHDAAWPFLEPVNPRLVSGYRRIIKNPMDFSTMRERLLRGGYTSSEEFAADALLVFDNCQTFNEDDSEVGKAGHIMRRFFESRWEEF
Excerpt: as §1, §2, §3, §4, §5
as §6, with “Healthcare), and Superdex 75 XK 16/600 gel filtration column (GE Healthcare) using standard” left out
(§7) AlphaScreen assay: AlphaScreen buffer (25 mM HEPES, 100 mM NaCl, 0.05% w/v CHAPS, 0.1% w/v BSA; pH 7.6) was prepared fresh each day, filter sterilization through a 0.22 µm filter, and stored at 4 °C, with equilibration to room temperature before use. Single shot screening against BAZ2A and BRD9A was carried out by the Structural Genomics Consortium (Oxford) as described previously.[12] Biotinylated peptides employed and final assay […]
(§8) biotin-H35-24KAc14 50 nM. Amino acids were tested at 25 µM and 250 µM with <0.5% DMSO.

[3] = biological target: T3, BRD9 (Homo sapiens, UniProt Q9H8M2); test: AlphaScreen single shot screening, BRD9 with biotin-H2A(KAc)3 peptide; assay type: binding; settings: average of triplicate, BRD9 40 nM, biotin-H2A 1-21 KAc9KAc13KAc15 25 nM, read-out: Percentage inhibition of bromodomain-KAc recognition, BRD9, H2(KAc)3; for inhibition at 25 µM: amino acid 50 μM as headed in Table 1 (supplement: 25 µM); for inhibition at 250 µM: amino acid 250 μM, <0.5% DMSO
T3 construct: the phylogenetically diverse BAZ2A, BRD4(1), and BRD9 bromodomains; Structural Genomics Consortium (Oxford)
T3 sequence (Q9H8M2 136-240 limits assumed): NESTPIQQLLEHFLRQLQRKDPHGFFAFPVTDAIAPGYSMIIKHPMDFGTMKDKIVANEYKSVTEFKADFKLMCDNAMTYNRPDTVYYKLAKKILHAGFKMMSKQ
Excerpt: as §1, §2, §3, §4, §5
as §6, with “Healthcare), and Superdex 75 XK 16/600 gel filtration column (GE Healthcare) using standard” left out
as §7, §8

[4] = biological target: T2, BAZ2A; test: AlphaScreen single shot screening, BAZ2A with biotin-H3K14Ac peptide; assay type: binding; settings: amino acid 50 μM as headed in Table 1 (supplement: 25 µM), average of triplicate, BAZ2A 25 nM, biotin-H3 5-24 KAc14 50 nM, read-out: Percentage inhibition of bromodomain-KAc recognition, BAZ2A, H3K14Ac
[5] = biological target: T3, BRD9; test: AlphaScreen single shot screening, BRD9 with biotin-H2A(KAc)3 peptide; assay type: binding; settings: amino acid 50 μM as headed in Table 1 (supplement: 25 µM), average of triplicate, BRD9 40 nM, biotin-H2A 1-21 KAc9KAc13KAc15 25 nM, read-out: Percentage inhibition of bromodomain-KAc recognition, BRD9, H2(KAc)3
[6] = test system: bromodomain of BRDT; settings: KAc mimics containing MTCTK; cited from earlier work
Excerpt: Lysine acetylation is a prevalent post‐translational modification (PTM) which plays a fundamental role in regulating protein function.1, 2 Although acetylated lysine (KAc) residues are found throughout the cellular environment,3, 4, 5 it is the role of this PTM in chromatin function which has garnered most recent interest.6 KAc is viewed as one of the “marks” that comprises the epigenetic code,7, 8 and enzymes that write (histone acetyl transferases) and erase (histone deacetylases) this modification are well characterized.9 Neutralization of lysine's positive charge by acetylation weakens the ...

[7] = amino acid 250 μM, buffer blank 0%, 25% DMSO 100% inhibition
[8] = read-out: Percentage inhibition of bromodomain-KAc recognition, BRD4(1), H4(KAc)4, amino acid 50 μM
[9] = read-out: Percentage inhibition of bromodomain-KAc recognition, BRD4(1), H4(KAc)4, amino acid 250 μM, buffer blank 0%, 25% DMSO 100% inhibition

SMILES	inhibition at 0.004 µM [1, 8] [%]	inhibition at 0.004 µM [1, 9] [%]	inhibition at 250 µM [2] [%]	inhibition [2] [%]	inhibition at 25 µM [3] [%]	inhibition at 250 µM [3] [%]	other results
Cc1noc(C)c1-c1cccc(C[C@H](N)C(=O)O)c1 [compound 8]	18.3	> 70	45.3	5.8	-7.7	0.5	Percentage inhibition of bromodomain-KAc recognition, BRD4(1), H4(KAc)4 [1, 7]: 76.3%
Cc1cc(NC(=O)C[C@H](N)C(=O)O)no1 [compound 13]	0.9	26.3	96.1	12.6	-1	47.9	–
Cc1cc(CNC(=O)C[C@H](N)C(=O)O)on1 [compound 11]	4.7	18.5	53.8	1.9	-8.1	-0.1	–
CC(=O)NCCCC[C@H](N)C(=O)O [KAc, reference compound]	–	–	–	–	–	–	Percentage inhibition of bromodomain-KAc recognition, BRD4(1), H4(KAc)4 ([1]; amino acid 50 μM): 4.6%
Cc1cc(COC[C@H](N)C(=O)O)on1 [compound 4]	0.6	10.3	–	–	–	–	–
Cc1cc(C(=O)NC[C@H](N)C(=O)O)on1 [compound 5, (S)-2-Amino-3-(3-methylisoxazole-5-carboxamido)propanoic acid]	–	–	98.7	–	–	73.6	Percentage inhibition of bromodomain-KAc recognition, BRD4(1), H4(KAc)4 ([1]; amino acid 50 μM): 2.5%; Percentage inhibition of bromodomain-KAc recognition, BRD4(1), H4(KAc)4 [1, 7]: 31.2%; inhibition at 50 µM [4]: 58.1%; inhibition at 50 µM [5]: 28.6%
CSC(=O)NCCSC[C@H](N)C(=O)O [compound 7, methylthiocarbonylthialysine]	–	–	–	–	–	–	interaction with the bromodomain of BRDT compared to KAc [6]: two‐ to fourfold less efficiently
Cc1cc(CCC[C@H](N)C(=O)O)on1 [compound 3, (S)-2-Amino-5-(3-methylisoxazol-5-yl)pentanoic acid]	–	–	–	–	–	–	Percentage inhibition of bromodomain-KAc recognition, BRD4(1), H4(KAc)4 ([1]; amino acid 50 μM): 2.3%; Percentage inhibition of bromodomain-KAc recognition, BRD4(1), H4(KAc)4 [1, 7]: 16.4%
Cc1noc(C)c1NC(=O)C[C@H](N)C(=O)O [compound 12]	1.3	23.5	66.9	10.5	-2.1	12.6	–
Cc1noc(C)c1-c1cc(O)cc(C(O)c2ccccc2)c1 (stereo not drawn) [compound 2, reference compound]	–	–	–	–	–	–	inhibition by positive control ([1]; included on each plate of the amino acid screen as a positive control, in every case, concentration not given): 100%
Cc1noc(C)c1-c1ccc(C[C@H](N)C(=O)O)cc1 [compound 9]	22.7	45.8	28.1	2.6	-1.7	66.5	–
Cc1cc(NC(=O)C[C@H](N)C(=O)O)on1 [compound 14]	–	–	84.3	14.5	1.4	14.6	–
Cc1noc(C)c1NC(=O)CC[C@H](N)C(=O)O [compound 10, N5-(3,5-Dimethylisoxazol-4-yl)-L-glutamine]	4.1	7.5	25.1	1.4	-4.8	-3.1	–
